Test results published in ChEMBL document CHEMBL1201862, “PubChem BioAssay data set” (2004).
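Five concentrations, 48 hours, 96-well plates. Abbreviation: GI50, concentration required for 50% inhibition of growth.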 Activity calls are given as the source filed them. Cut-off read from the data, not from the text of the source: active = GI50 up to about 1.1 µM and inactive = higher.

What was measured:
Test in all cases: NCI anticancer screen, dose series, 48 h
SR = system: SR
SNB-75 = system: SNB-75
LOX IMVI = system: LOX IMVI
HOP-62 = system: HOP-62
OVCAR-8 = system: OVCAR-8
DLD-1 = system: DLD-1
NCI-H460 = system: NCI-H460
EKVX = system: EKVX
SF-268 = system: SF-268
PC-3 = system: PC-3
OVCAR-3 = system: OVCAR-3
NCI-H23 = system: NCI-H23
UO-31 = system: UO-31
RPMI-8226 = system: RPMI-8226
HCC 2998 = system: HCC 2998
MDA-MB-231 = system: MDA-MB-231
HCT-116 = system: HCT-116
UACC-257 = system: UACC-257
MCF7 = system: MCF7
DU-145 = system: DU-145

Row | SMILES | GI50 (SR) | GI50 (SNB-75) | GI50 (LOX IMVI) | GI50 (HOP-62) | GI50 (OVCAR-8) | GI50 (DLD-1) | GI50 (NCI-H460) | GI50 (EKVX) | GI50 (SF-268) | GI50 (PC-3) | GI50 (OVCAR-3) | GI50 (NCI-H23) | GI50 (UO-31) | GI50 (RPMI-8226) | GI50 (HCC 2998) | GI50 (MDA-MB-231) | GI50 (HCT-116) | GI50 (UACC-257) | GI50 (MCF7) | GI50 (DU-145)
1 | NS(=O)(=O)OCCCCCCCOS(N)(=O)=O | 31.6 µM (inactive) | 94.8 µM (inactive) | 161 µM (inactive) | 142 µM (inactive) | 221 µM (inactive) | 495 µM (inactive) | 23 µM (inactive) | 272 µM (inactive) | 130 µM (inactive) | 249 µM (inactive) | 361 µM (inactive) | 245 µM (inactive) | 265 µM (inactive) | 296 µM (inactive) | 300 µM (inactive) | 445 µM (inactive) | 309 µM (inactive) | 451 µM (inactive) | 101 µM (inactive) | 124 µM (inactive)
2 | Nc1ccccc1C(=O)C(Br)C(Br)c1ccc2c(c1)OCO2 (stereo unspecified) | 46.1 µM (inactive) | 20.9 µM (inactive) | 14 µM (inactive) | 21.8 µM (inactive) | 27.6 µM (inactive) | 33.6 µM (inactive) | 18.6 µM (inactive) | 21.3 µM (inactive) | 26.4 µM (inactive) | – | 16.7 µM (inactive) | 19.9 µM (inactive) | 15.5 µM (inactive) | 33.7 µM (inactive) | 20.3 µM (inactive) | – | 16.4 µM (inactive) | 19.1 µM (inactive) | – | –
3 | O=C1C2C(C(=O)N1c1ccccc1)C1(Br)c3ccccc3C2(Br)C2C(=O)N(c3ccccc3)C(=O)C21 (stereo unspecified) | > 10 µM (inactive) | 13 µM (inactive) | > 31.6 µM (inactive) | > 10 µM (inactive) | > 100 µM (inactive) | 16.8 µM (inactive) | > 31.6 µM (inactive) | > 31.6 µM (inactive) | 27.7 µM (inactive) | – | > 31.6 µM (inactive) | 17.6 µM (inactive) | 17.5 µM (inactive) | 10.6 µM (inactive) | 15 µM (inactive) | – | 28.3 µM (inactive) | > 31.6 µM (inactive) | – | –
4 | CNC(N)NC | > 100 µM (inactive) | > 100 µM (inactive) | > 100 µM (inactive) | > 100 µM (inactive) | > 100 µM (inactive) | > 100 µM (inactive) | > 100 µM (inactive) | > 100 µM (inactive) | > 100 µM (inactive) | – | > 100 µM (inactive) | > 100 µM (inactive) | > 100 µM (inactive) | > 100 µM (inactive) | > 100 µM (inactive) | – | > 100 µM (inactive) | > 100 µM (inactive) | – | –
5 | COc1cc2c(cc1OC)C(O)[C@H](Br)C(C)(C)O2 (stereo partly specified) | > 100 µM (inactive) | 84.3 µM (inactive) | > 100 µM (inactive) | > 100 µM (inactive) | > 100 µM (inactive) | > 100 µM (inactive) | > 100 µM (inactive) | > 100 µM (inactive) | > 100 µM (inactive) | – | > 100 µM (inactive) | > 100 µM (inactive) | > 100 µM (inactive) | > 100 µM (inactive) | > 100 µM (inactive) | – | > 100 µM (inactive) | > 100 µM (inactive) | – | –
6 | Cn1cnnc1Sc1c([N+](=O)[O-])ncn1C | 26.5 µM (inactive) | > 100 µM (inactive) | 35.2 µM (inactive) | > 100 µM (inactive) | > 100 µM (inactive) | 38.5 µM (inactive) | > 100 µM (inactive) | > 100 µM (inactive) | > 100 µM (inactive) | – | > 100 µM (inactive) | 84.7 µM (inactive) | > 100 µM (inactive) | 40.5 µM (inactive) | > 100 µM (inactive) | – | > 100 µM (inactive) | > 100 µM (inactive) | – | –
7 | CC1=C2C(=O)C(C)(C)C=C2C(=O)[C@](C)(O)C12CC2 [DEHYDROILLUDIN M] | 0.61 µM (active) | > 1 µM (active) | 0.402 µM (active) | > 1 µM (active) | 0.56 µM (active) | > 0.791 µM (active) | 0.23 µM (active) | > 1 µM (active) | 0.521 µM (active) | – | > 1 µM (active) | 0.499 µM (active) | > 1 µM (active) | > 1 µM (active) | > 0.815 µM (active) | – | 0.265 µM (active) | 0.745 µM (active) | – | –
